Measured values reported in ChEMBL document CHEMBL6074620, “Discovery of a triphenylamine-based ligand that targets mitochondrial DNA G-quadruplexes and activates the cGAS-STING immunomodulatory pathway” (Eur J Med Chem, 2024).
Activity calls are given as the source filed them. No cut-off for these calls is given here.

Key:
[1] = Toxicity in female BALB/c mouse implanted with mouse 4T1 cells assessed as body weight loss at 2.5 mg/kg, sc measured every other day for 21 days; assay type: organism-based; settings: in vivo, 504 h, time 21 day
4T1 [2] = experiment: Activation of cGAS-STING signaling pathway in mouse 4T1 cells assessed as increase in ISG54 level at 5 uM by qPCR analysis; assay type: cell-based; settings: filed as activator
4T1 [3] = experiment: Induction of ROS generation in mouse 4T1 cells assessed as increase ROS level by DCFH-DA staining based analysis; assay type: functional, cell-based
Mus musculus [4] = experiment: In-vivo activation of cGAS-STING signaling pathway in female BALB/c mouse assessed as effect on cGAS level in tumor at 2.5 mg/kg, sc by Western blot analysis; assay type: functional, organism-based
4T1 [5] = experiment: Induction of mitochondrial damage in mouse 4T1 cells assessed as decrease in CytB level at 5 uM in presence of NAC by qPCR analysis; assay type: functional, cell-based
4T1 [6] = experiment: Activation of cGAS-STING pathway in mouse 4T1 cells assessed as increase in cGAS expression level by Western blot analysis; assay type: cell-based; settings: filed as activator, dose <= 5.0 µM
4T1 [7] = experiment: Activation of cGAS-STING signaling pathway in mouse 4T1 cells assessed as increase in IFN-beta level at 5 uM by qPCR analysis; assay type: cell-based; settings: filed as activator
4T1 [8] = experiment: Activation of cGAS-STING signaling pathway in mouse 4T1 cells assessed as increase in IL-6 level at 5 uM by qPCR analysis; assay type: cell-based; settings: filed as activator
Mus musculus [9] = experiment: In-vivo activation of cGAS-STING signaling pathway in female BALB/c mouse assessed as increase in IL-6 level at 2.5 mg/kg, sc by ELISA analysis; assay type: functional, organism-based
[10] = Toxicity in female BALB/c mouse implanted with mouse 4T1 cells assessed as change in kidney weight at 2.5 mg/kg, sc measured after 21 days by Hematoxylin-Eosin staining based analysis; assay type: organism-based; settings: in vivo, 504 h, time 21 day
4T1 [11] = experiment: Antitumor activity against mouse 4T1 cells implanted with female BALB/c mouse assessed as decrease tumor volume at 2.5 mg/kg, sc administered for every 3 days for 2 weeks from day 7; assay type: functional, organism-based
Mus musculus [12] = experiment: Immunostimulatory activity in female BALB/c mouse implanted with mouse 4T1 cells assessed as tumor infiltrating lymphocytes by measuring increase in CD4+ and CD8+T cells at 2.5 mg/kg, sc by immunohistochemistry analysis; assay type: functional, organism-based
4T1 [13] = experiment: Induction of mitochondrial damage in mouse 4T1 cells assessed as increase in CytB level by qPCR analysis; assay type: functional, cell-based
4T1 [14] = experiment: Induction of mitochondrial damage in mouse 4T1 cells assessed as increase in ND4 level by qPCR analysis; assay type: functional, cell-based
4T1 [15] = experiment: Induction of mitochondrial damage in mouse 4T1 cells assessed as decrease in Dloop2 level at 5 uM in presence of NAC by qPCR analysis; assay type: functional, cell-based
Mitochondrial membrane [16] = experiment: Disruption of mitochondrial membrane potential in mouse 4T1 cells assessed as decrease red fluorescence at 0 to 5 uM by JC-1 staining based analysis; settings: dose 0-5 µM
Mus musculus [17] = experiment: Immunostimulatory activity in female BALB/c mouse implanted with mouse 4T1 cells assessed as increase in number of activated CD8+ T cells in spleen 2.5 mg/kg, sc by flow cytometry; assay type: functional, organism-based
4T1 [18] = experiment: Induction of mitochondrial damage in mouse 4T1 cells assessed as increase in Dloop2 level by qPCR analysis; assay type: functional, cell-based
4T1 [19] = experiment: Induction of mouse 4T1 cell maturation assessed as increase in CD80 positive cells by flow cytometric analysis; assay type: functional, cell-based; settings: dose <= 5.0 µM
4T1 [20] = experiment: Activation of cGAS-STING signaling pathway in mouse 4T1 cells assessed as […] in IRF3 phosphorylation up to 5 uM by Western blot analysis; assay type: cell-based; settings: filed as activator
Mus musculus [21] = experiment: In-vivo activation of cGAS-STING signaling pathway in female BALB/c mouse assessed as increase in TNF-alpha level at 2.5 mg/kg, sc by ELISA analysis; assay type: functional, organism-based
4T1 [22] = experiment: Activation of cGAS-STING pathway in mouse 4T1 cells assessed as […] in STING phosphorylation up to 5 uM by Western blot analysis; assay type: cell-based; settings: filed as activator
Mus musculus [23] = experiment: Immunostimulatory activity in female BALB/c mouse implanted with mouse 4T1 cells assessed as increase in CD8+ T cells in spleen 2.5 mg/kg, iv by flow cytometry; assay type: functional, organism-based
4T1 [24] = experiment: Antitumor activity against mouse 4T1 cells implanted with female BALB/c mouse assessed as decrease tumor weight at 2.5 mg/kg, sc administered for every 3 days for 2 weeks and measured on day 21; assay type: functional, organism-based; settings: time 21.0 day
4T1 [25] = experiment: Induction of apoptosis in mouse 4T1 cells at 5 uM by Annexin V/PI staining based flow cytometry analysis; assay type: functional, cell-based
4T1 [26] = experiment: Antitumor activity against mouse 4T1 cells implanted with female BALB/c mouse assessed as suppression in lung metastasis at 2.5 mg/kg, iv administered every 3 days for 2 weeks from day 7; assay type: functional, organism-based
4T1 [27] = experiment: Antitumor activity against mouse 4T1 cells implanted with female BALB/c mouse assessed as effect on caspase-3 level in tumor at 2.5 mg/kg, sc measured for 21 days; assay type: functional, organism-based; settings: time 21.0 day
4T1 [28] = experiment: Induction of ROS generation in mouse 4T1 cells assessed as increase 8-OG level in presence of 8-oxoguanine by DAPI staining based immunofluorescence based analysis; assay type: functional, cell-based
[29] = Toxicity in female BALB/c mouse implanted with mouse 4T1 cells assessed as change in liver weight at 2.5 mg/kg, sc measured after 21 days by Hematoxylin-Eosin staining based analysis; assay type: organism-based; settings: in vivo, 504 h, time 21 day
[30] = Cytotoxicity against human MCF-10A assessed as cell growth inhibition incubated for 24 hrs by CCK-8 assay; assay type: toxicity, cell-based; settings: MCF-10A cells
4T1 [31] = experiment: Induction of mitochondrial damage DNA in mouse 4T1 cells assessed as reduction in mtDNA by qPCR analysis; assay type: functional, cell-based
4T1 [32] = experiment: Induction of mouse 4T1 cell maturation assessed as increase in CD86 positive cells by flow cytometric analysis; assay type: functional, cell-based; settings: dose <= 5.0 µM
4T1 [33] = experiment: Induction of ROS generation in mouse 4T1 cells assessed as decrease ROS level at 5 uM in presence of NAC by […] analysis; assay type: functional, cell-based
4T1 [34] = experiment: Activation of cGAS-STING signaling pathway in mouse 4T1 cells assessed as increase in IL-6 level up to 5 uM by ELISA analysis; assay type: cell-based; settings: filed as activator
4T1 [35] = experiment: Antitumor activity against mouse 4T1 cells implanted with female BALB/c mouse assessed as effect on PARP level in tumor at 2.5 mg/kg, sc measured for 21 days; assay type: functional, organism-based; settings: time 21.0 day
Quadruplex DNA = experiment: Binding affinity to 5-terminal mt6363 DNA (unknown origin) assessed as dissociation constant by TAMRA-labeled G4 quenching assay; assay type: nucleic-acid assay
Mus musculus [36] = experiment: Immunostimulatory activity in female BALB/c mouse implanted with mouse 4T1 cells assessed as change in CD8+ T cells in spleen at 2.5 mg/kg, sc by flow cytometry; assay type: functional, organism-based
Mitochondrial membrane [37] = experiment: Disruption of mitochondrial membrane potential in mouse 4T1 cells assessed as increase green fluorescence at 0 to 5 uM by JC-1 staining based analysis; settings: dose 0-5 µM
4T1 [38] = experiment: Activation of cGAS-STING signaling pathway in mouse 4T1 cells assessed as increase in TNF-alpha level at 5 uM by qPCR analysis; assay type: cell-based; settings: filed as activator

For `COc1ccc(N(c2ccc(/C=C/C3=[N+](C)c4ccc5ccccc5c4C3(C)C)cc2)c2ccc(OC)cc2)cc1.[I-]`, the Activity [1] was “Non-toxic”, the Activity (4T1 [2]) was “Active” and the Activity (4T1 [3]) was “Active”. The Activity (Mus musculus [4]) was “Active”, the Activity (4T1 [5]) was “Active” and the Activity (4T1 [6]) was “Dose-dependent-effect”. For the same compound, the Activity (4T1 [7]) was “Active”, the Activity (4T1 [8]) was “Active” and the Activity (Mus musculus [9]) was “Active”. The Activity [10] was “Non-toxic”, the Activity (4T1 [11]) was “Active” and the Activity (Mus musculus [12]) was “Active”. For the same compound, the Activity (4T1 [13]) was “Active”, the Activity (4T1 [14]) was “Active” and the Activity (4T1 [15]) was “Active”. The Activity (Mitochondrial membrane [16]) was “Active”, the Activity (Mus musculus [17]) was “Active” and the Activity (4T1 [18]) was “Active”. The Activity (4T1 [19]) was “Dose-dependent-effect”, the Activity (4T1 [20]) was “Active” and the Activity (Mus musculus [21]) was “Active”. The Activity (4T1 [22]) was “Active”, the Activity (Mus musculus [23]) was “Active” and the Activity (4T1 [24]) was “Active”. The Activity (4T1 [25]) was “Active”, the Activity (4T1 [26]) was “Active” and the Activity (4T1 [27]) was “Active”. The Activity (4T1 [28]) was “Active”, the Activity [29] was “Non-toxic” and the IC50 at 24 h [30] was 9.6 µM. For the same compound, the Activity (4T1 [31]) was “Active”, the Activity (4T1 [32]) was “Dose-dependent-effect” and the Activity (4T1 [33]) was “Active”. The Activity (4T1 [34]) was “Active”, the Activity (4T1 [35]) was “Active” and the Kd (Quadruplex DNA) was 2.4 µM. For the same compound, the Activity (Mus musculus [36]) was “Active”, the Activity (Mitochondrial membrane [37]) was “Active” and the Activity (4T1 [38]) was “Active”.
